Data published in US4617314A, “Benzofuran- and benzopyran-carboxamide derivatives” (priority 1983, dated 1986).

Key:
[1] = system: stereotyped behavior of rats induced by apomorphine; test: Anti-apomorphine Action (rats): suppression of gnawing (stereotyped) behavior; format: in vivo, rats (female Wistar); conditions: Rattus norvegicus, po, 60 min before 1.25 mg/kg i.v. apomorphine hydrochloride; 50% suppression of gnawing behavior; probit
Description: (§1) Dopamine antagonism was observed by the antagonism to
(2) stereotyped behavior of rats
(§2) induced by the administration of apomorphine to the animals which drug acts on dopamine. The response of (1) is considered to be due to the action of dopamine on the mesolimbic system whereas the response of (2) is regarded mainly as the action of dopamine on the extrapyramidal system. As a consequence, a drug having high selectivity to the antagonism to the response of (1) is deemed to be more useful with less extrapyramidal side effects.
Groups of 7 female Wistar rats were used. Test compounds were orally administered, 60 minutes thereafter, apomorphine hydrochloride was intravenously administered at a dosage of 1.25 mg/kg. After 5 minutes and 20 minutes, respectively, whether gnawing behavior (stereotyped behavior) appears or not during the period of 5 minutes was observed. The dose of test compounds required for 50% suppression of the appearance was evaluated as ED50 value by probit method.

extrapyramidal system = conditions: cited from earlier work
[2] = system: rats administered with methamphetamine; test: Methamphetamine Potentiation Action (lethality increasing effect); format: in vivo, rats (male Wistar); conditions: 8 rats/group, methamphetamine hydrochloride 5 mg/kg i.p.
Protocol: Activation effect was construed as lethality increasing effect of a test drug on rats which were administered with methamphetamine at a non-lethal dose every week. Accordingly, it is considered that the greater is the number of rats which died at a lower dose in an earlier week, the activation activity is the higher.
Groups of 8 male Wistar rats weighing above […] were used. Test compounds are intraperitoneally administered and 15 minutes thereafter, 5 mg/kg of methamphetamine hydrochloride was intraperitoneally administered. Number of dead rats within one week was counted. In the 2nd to 4th week, experiment was likewise repeated at one week intervals by the administration of test compounds and methamphetamine hydrochloride.

[3] = in vivo, po; cited from earlier work
[4] = system: hypermotility of mice induced by apomorphine; test: Anti-apomorphine Action (mice): suppression of spontaneous motility; format: in vivo, mice (male dd-strain); conditions: Mus musculus, po, 60 min before 0.5 mg/kg apomorphine hydrochloride; 50% suppression of spontaneous motility
Description: as §1
(1) hypermotility of mice, and
as §2
Groups of 5 male dd-strain mice were used. Test compounds were orally administered and 60 minutes thereafter, 0.5 mg/kg of apomorphine hydrochloride was intracutaneously administered. Immediately thereafter, spontaneous motility of the mice was measured with the aid of Animex (manufactured by Columbus Company, U.S.A.) for 20 minutes. The procedure was repeated three times with respective groups. The dose of test compounds required for 50% suppression of spontaneous motility of control group was graphically intraporated and determined as ED50 value.

[5] = in vivo; cited from earlier work

CCN1CCCC1CNC(=O)c1cc(S(N)(=O)=O)ccc1OC (stereo not drawn) [Sulpyride, reference compound]
ED50 [1]: > 500 mg/kg
cataleptogenic activity (extrapyramidal system; as opposed to butyrophenone-series (haloperidol) or phenothiazine-series (chlorpromazine) compounds): weak
side effects on the extrapyramidal system (extrapyramidal system; in vivo): less side effects
Methamphetamine Potentiation Action, Number of Dead Animal, Total Number ([2]; 1st Week, 20 mg/kg): 0
Methamphetamine Potentiation Action, Number of Dead Animal, Total Number ([2]; 1st Week, 40 mg/kg): 0
Methamphetamine Potentiation Action, Number of Dead Animal, Total Number ([2]; 1st Week, 80 mg/kg): 2
Methamphetamine Potentiation Action, Number of Dead Animal, Total Number ([2]; 2nd Week, 20 mg/kg): 0
Methamphetamine Potentiation Action, Number of Dead Animal, Total Number ([2]; 2nd Week, 40 mg/kg): 0
Methamphetamine Potentiation Action, Number of Dead Animal, Total Number ([2]; 2nd Week, 80 mg/kg): 3
Methamphetamine Potentiation Action, Number of Dead Animal, Total Number ([2]; 3rd Week, 20 mg/kg): 0
Methamphetamine Potentiation Action, Number of Dead Animal, Total Number ([2]; 3rd Week, 40 mg/kg): 1
Methamphetamine Potentiation Action, Number of Dead Animal, Total Number ([2]; 3rd Week, 80 mg/kg): 3
Methamphetamine Potentiation Action, Number of Dead Animal, Total Number ([2]; 4th Week, 20 mg/kg): 0
Methamphetamine Potentiation Action, Number of Dead Animal, Total Number ([2]; 4th Week, 40 mg/kg): 1
Methamphetamine Potentiation Action, Number of Dead Animal, Total Number ([2]; 4th Week, 80 mg/kg): 3
uptake rate in living organisms [3]: low uptake rate
ED50 [4]: 330 mg/kg
crossing of blood-brain barrier [5]: difficult to cross blood-brain barrier
